Measured values published in ChEMBL document CHEMBL3745664, “Synthesis, biological evaluation and QSAR studies of diarylpentanoid analogues as potential nitric oxideinhibitors” (Medchemcomm, 2015).
pIC50: −log10 of the molar value.

How the values were obtained:
RAW264.7 [1] = test: Antiinflammatory activity in mouse RAW264.7 cells assessed as inhibition of LPS/IFN-gamma-stimulated nitric oxide production after 17 hrs by Griess assay; assay type: functional, cell-based; conditions: RAW264.7, 17 h; for pIC50: read-out: IC50; for IC50: read-out: pIC50 (converted)
RAW264.7 [2] = test: Cytotoxicity against mouse RAW264.7 cells by MTT assay; assay type: cell-based
RAW264.7 [3] = test: Antiinflammatory activity in mouse RAW264.7 cells assessed as inhibition of LPS/IFN-gamma-stimulated nitric oxide production at 50 uM after 17 hrs by Griess assay; assay type: functional; conditions: RAW264.7, 17 h
[4] = Chemical stability of the compound in phosphate buffer at 20 uM at pH 2.4 at 25 degC by UV-visible spectrophotometric analysis; assay type: physicochemical; conditions: pH 2.4, 20 µM
[5] = Chemical stability of the compound in phosphate buffer at 20 uM at pH 12.7 at 25 degC by UV-visible spectrophotometric analysis; assay type: physicochemical; conditions: pH 12.7, 20 µM
[6] = Chemical stability of the compound in phosphate buffer at 20 uM at pH 7 at 25 degC by UV-visible spectrophotometric analysis; assay type: physicochemical; conditions: pH 7, 20 µM

Row | Compound | pIC50 (RAW264.7 [1]) | IC50 (RAW264.7 [1]) [µM] | Stability [4] | Stability [5] | Stability [6] | pIC50 (RAW264.7 [2]) | inhibition at 50 µM (RAW264.7 [3]) [%]
1 | O=C(/C=C/C=C/c1ccccc1)c1ccccc1 | 4.35 | 44.6 |  |  |  | 4.35 | 66.8
2 | O=C(/C=C/C=C/c1ccccc1)c1cc(Cl)ccc1O |  |  |  |  |  |  | < 10
3 | COc1ccc(/C=C/C=C/C(=O)c2cc(Cl)ccc2O)cc1 |  |  |  |  |  |  | 26.4
4 | O=C(/C=C/C=C/c1ccc(Cl)cc1)c1cc(Cl)ccc1O |  |  |  |  |  |  | < 10
5 | O=C(/C=C/C=C/c1ccccc1)c1ccccc1O |  |  |  |  |  |  | < 10
6 | O=C(/C=C/C=C/c1ccccc1)c1ccc(F)cc1 |  |  |  |  |  |  | 33.1
7 | COc1ccc(/C=C/C=C/C(=O)c2ccc[nH]2)cc1 | 4.24 | 57.4 |  |  |  | < 4.00 | 95.8
8 | COc1ccc(/C=C/C=C/C(=O)c2cccs2)cc1 | 4.32 | 47.9 |  |  |  | 4.16 | 69.6
9 | O=C(/C=C/C=C/c1ccccc1)c1cccc(O)c1 | 4.58 | 26.1 |  |  |  | 4.31 | 104
10 | COc1ccc(/C=C/C=C/C(=O)c2ccc(OC)cc2)cc1 |  |  |  |  |  |  | 41.6
11 | O=C(/C=C/C=C/c1ccccc1)c1cc(Cl)cc(Cl)c1O |  |  |  |  |  |  | 19.6
12 | CN(C)c1ccc(/C=C/C=C/C(=O)c2cccs2)cc1 |  |  |  |  |  |  | 32.4
13 | COc1ccc(/C=C/C=C/C(=O)c2ccc(OC)cc2OC)cc1 |  |  |  |  |  |  | < 10
14 | COc1ccc(/C=C/C=C/C(=O)c2cc(C)oc2C)cc1 | 4.40 | 45.7 |  |  |  | < 4.00 | 59.7
15 | Cc1ccc(C(=O)/C=C/C=C/c2ccccc2)s1 | 4.16 | 68.5 |  |  |  | < 4.00 | 52.6
16 | Cc1cc(C(=O)/C=C/C=C/c2ccccc2)c(C)o1 | 4.23 | 58.9 |  |  |  | < 4.00 | 84.6

Row | Compound | pIC50 (RAW264.7 [1]) | IC50 (RAW264.7 [1]) [µM] | Stability [4] | Stability [5] | Stability [6] | pIC50 (RAW264.7 [2]) | inhibition at 50 µM (RAW264.7 [3]) [%]
17 | O=C(/C=C/C=C/c1ccccc1)c1cc(Br)ccc1O |  |  |  |  |  |  | < 10
18 | COc1ccc(/C=C/C=C/C(=O)c2ccc(F)cc2)cc1 |  |  |  |  |  |  | 40
19 | O=C(/C=C/C=C/c1ccc(Cl)cc1)c1ccc(Cl)cc1 |  |  |  |  |  |  | 31.2
20 | COc1ccc(/C=C/C=C/C(=O)c2ccccc2)cc1 | 4.34 | 45.8 |  |  |  | < 4.00 | 77.4
21 | COc1ccc(/C=C/C=C/C(=O)c2ccco2)cc1 | 4.56 | 27.5 |  |  |  | 4.12 | 61.5
22 | CN(C)c1ccc(/C=C/C=C/C(=O)c2ccco2)cc1 | 3.94 |  |  |  |  | < 4.00 | 56.9
23 | COc1ccc(/C=C/C=C/C(=O)c2ccc(C)s2)cc1 |  |  |  |  |  |  | 41.7
24 | COc1ccc(/C=C/C=C/C(=O)c2cc(C)sc2C)cc1 |  |  |  |  |  |  | 44.8
25 | Cc1ccc(/C=C/C=C/C(=O)c2ccccc2)cc1 |  |  |  |  |  |  | 73.7
26 | CN(C)c1ccc(/C=C/C=C/C(=O)c2ccccc2)cc1 | 4.13 | 73.5 |  |  |  | < 4.00 | 51.2
27 | O=C(/C=C/C=C/c1ccc(O)cc1)c1ccc(O)cc1O | 4.57 | 27.2 |  |  |  | < 4.00 | 82.1
28 | COc1ccc(/C=C/C=C/C(=O)c2cc(Cl)cc(Cl)c2O)cc1 |  |  |  |  |  |  | < 10
29 | CN(C)c1ccc(/C=C/C=C/C(=O)c2ccccc2O)cc1 |  |  |  |  |  |  | 16.4
30 | Cc1ccc(C(=O)/C=C/C=C/c2ccc(O)cc2)s1 | 4.99 | 10.2 | Stable | Stable | Stable | 4.55 | 103
31 | COc1ccc(/C=C/C=C/C(=O)c2ccc(C)cc2)cc1 |  |  |  |  |  |  | 42.2
32 | O=C(/C=C/C=C/c1ccccc1)c1ccc(Cl)cc1 |  |  |  |  |  |  | < 10

Second part, led by results:

Row | pIC50 (RAW264.7 [1]) | IC50 (RAW264.7 [1]) [µM] | Stability [4] | Stability [5] | Stability [6] | Compound | pIC50 (RAW264.7 [2]) | inhibition at 50 µM (RAW264.7 [3]) [%]
33 | 4.41 | 39.3 |  |  |  | COc1cc(/C=C/C=C/C(=O)c2ccc(F)cc2)cc(OC)c1O | 5.30 | 76.7
34 | 4.66 | 21.8 |  |  |  | COc1ccc(/C=C/C=C/C(=O)c2ccc(O)cc2F)cc1 | 4.22 | 102
35 | 4.15 | 71.1 |  |  |  | COc1ccc(C(=O)/C=C/C=C/c2ccccc2)cc1 | < 4.00 | 51.1
36 | 4.38 | 42 |  |  |  | COc1cc(/C=C/C=C/C(=O)c2ccccc2)cc(OC)c1O | 4.54 | 64.1
37 | 4.79 | 16.3 |  |  |  | COc1ccc(/C=C/C=C/C(=O)c2ccc(OC)c(O)c2)cc1 | 4.55 | 100
38 | 4.20 | 63.8 |  |  |  | CN(C)c1ccc(/C=C/C=C/C(=O)c2ccc(F)cc2)cc1 | < 4.00 | 71.5
39 | 4.83 | 14.8 |  |  |  | O=C(/C=C/C=C/c1ccc(O)cc1)c1ccc(F)cc1 | 4.34 | 110
40 | 4.11 | 77.4 |  |  |  | COc1ccc(C(=O)/C=C/C=C/c2ccc(N(C)C)cc2)cc1 | < 4.00 | 54.5
41 | 4.57 | 27.1 |  |  |  | COc1ccc(C(=O)/C=C/C=C/c2ccc(O)cc2)c(O)c1 | < 4.00 | 93.4
42 | 4.63 | 23.4 |  |  |  | COc1ccc(/C=C/C=C/C(=O)c2ccc(O)c(Cl)c2)cc1 | 4.17 | 98.2
43 | 4.79 | 16.4 |  |  |  | O=C(/C=C/C=C/c1ccc(O)cc1)c1ccc(O)cc1 | < 4.00 | 102
44 | 4.15 | 70.5 |  |  |  | COc1ccc(C(=O)/C=C/C=C/c2ccc(Cl)cc2)cc1 | 4.10 | 45.4
45 | 4.67 | 21.4 |  |  |  | COc1ccc(/C=C/C=C/C(=O)c2cc(OC)c(O)c(OC)c2)cc1 | 4.23 | 89.4
46 |  |  | Stable | Stable | Unstable | COc1cc(/C=C/C(=O)CC(=O)/C=C/c2ccc(O)c(OC)c2)ccc1O [CURCUMIN] | < 4.00 | 99.3
